Measurements as given in patent publication EP1263429B1, “ANTIVIRAL THERAPY” (Universiteit Utrecht, priority 2000, dated 2001).

Key:
[1] = tested on: drug-resistant HIV strains; conditions: Table 2 strains
HIV-1Ba-L [2] = test: HIV-1 production by chronically infected MDM, p24-core antigen ELISA; type: cell-based; conditions: Fig 6D; APHS added 5 days after infection, 2 days of incubation
Procedure: (§1) (A, B) Peripheral blood mononuclear cells (PBMC) were isolated from heparinized blood from HIV-1-, HIV-2-, and hepatitis B-seronegative donors and obtained on Ficoll-Hypaque density gradients. Cells were washed twice, stimulated with 5 µg/ml phytohemagglutinin (PHA), and cultured m RPMI-1640 medium supplemented with 5 mM Hepes, 19 mM sodium bicarbonate, 10 µg/mL gentamicin, and 10% heat-inactivated fetal calf serum (PBMC culture medium) at a concentration of 2 x 10^6 cells/ml. After 3 days of incubation stimulated PBMC were recovered from the flasks and infected for 2 hours with HIV-1Ba-L at a multiplicity of infection of 0.01. Afterwards, HIV-infected and mock-infected PBMC were washed twice to remove unbound virus. […] (B) PBMC were cultured in suspension at a concentration of 2 x 10^6 cells/ml in Teflon flasks in PBMC culture medium. […] After 2 days of incubation samples of culture supernatant were collected. p24-core antigen production was quantified using the enzyme-linked immunosorbent assay (ELISA) system of John Moore. […] (C, D) PBMC were isolated from heparinized blood from HIV-1-, HIV-2-, and hepatitis B-seronegative donors and obtained on Ficoll-Hypaque density gradients. […] After 2 days of incubation samples of culture supernatant were collected. p24-core antigen production was quantified using the enzyme-linked immunosorbent assay (ELISA) system of John Moore. […]

HIV-1Ba-L [3] = test: HIV-1 production by chronically infected PBMC, p24-core antigen ELISA; type: cell-based; conditions: Fig 6B; APHS added 5 days after infection, 2 days of incubation
Procedure: as §1

CCCCC#CCSc1ccccc1OC(C)=O [APHS, o-(acetoxy-phenyl)hept-2-ynyl sulphide]
inhibitory activity against drug resistant strains versus activity against a sensitive strain [1]: two- to four-fold higher | inhibition of HIV-1 production by chronically infected MDM (HIV-1Ba-L [2]): does not inhibit | inhibition of HIV-1 production of chronically infected PBMCs (HIV-1Ba-L [3]): does not inhibit
